Data on 3 molecules can be found in patent US20070026506A1, “METHOD FOR THE PRODUCTION OF TAXOL AND/OR TAXANES FROM CULTURES OF HAZEL CELLS” (Centro Biotecnologie Avanzate, priority 2005, published 2007).

Holding throughout (assay type): cell-based
Test [1] deals with explants of Taxus baccata. Kind of test: callus induction from explants of Taxus baccata. Conditions: for CALLUS INDUCTION 30 days Leaves (%) / CALLUS INDUCTION 60 days Leaves (%): T. baccata leaves; for CALLUS INDUCTION 30 days Seeds (%) / CALLUS INDUCTION 60 days Seeds (%): T. baccata seeds; for CALLUS INDUCTION 30 days Stems (%) / CALLUS INDUCTION 60 days Stems (%): T. baccata stems. The protocol: (§1) Therefore, in vitro cultures of plant tissues were prepared using leaves, stems and seeds of Corylus avellana (hazel) and of Taxus baccata. Both species used derive from land cultivations in Piedmont and Liguria.
(§2) The plant material was first sterilised, immersing it in a 5% NaClO solution for 20 minutes, and then washed with sterile distilled water three times.
(§3) The plant parts were fragmented and transferred into sterile Petri dishes containing MS solid medium at a concentration of 4.3 g/l, containing vitamins (1 ml/l), sucrose (20 g/l), agar (10 g/l) and phytohormones at different concentrations, all previously sterilised in an autoclave at 121° C. for 15 minutes.
(§4) In the preparation of cultures in vitro 2,4-dichlorophenoxyacetic acid (2,4-D), naphthaleneacetic acid (NAA), benzyladenine (BA) were used as phytohormones, in the following combinations and concentrations: • 2,4-D 1 mg/l • 2,4-D 0.5 mg/l • BA 1 mg/l • BA 0.5 mg/l • 2,4-D 0.5 mg/l+BA 1 mg/l • 2,4-D 1 mg/l+BA 0.5 mg/l • NAA 2 mg/l • NAA 2 mg/l+BA 0.5 mg/l Callus Induction
(§5) For each type of plant tissue (leaf, stem, seed) and for each species (taxus, hazel) at least 96 dishes were prepared: 12 dishes for each hormone concentration or combination. The dishes containing the plant material were kept inside a phytochamber, in the dark and at a constant temperature of 26° C.
(§6) The fragments were transferred, every 15 days, into new dishes with fresh medium containing the corresponding starting hormone or mixture of hormones. After 15 and 30 days from the culturing of the hazel differentiated tissue explants, the formation of the callus was evaluated. The formation of the callus for the taxus was evaluated at 30 and at 60 days, since before then the callus was not clear.

In test [2] the test system is callus of Taxus baccata. Kind of test: regeneration of callus (formation of young plants), Taxus baccata. Conditions: about three months from culturing.
The subject of test [3] is explants of Corylus avellana. Kind of test: callus induction from explants of Corylus avellana. Conditions: for CALLUS INDUCTION 15 days Leaves (%) / CALLUS INDUCTION 30 days Leaves (%): C. avellana leaves; for CALLUS INDUCTION 15 days Seeds (%) / CALLUS INDUCTION 30 days Seeds (%): C. avellana seeds; for CALLUS INDUCTION 15 days Stems (%) / CALLUS INDUCTION 30 days Stems (%): C. avellana stems. The protocol:
as §1, §2, §3, §4, §5, §6

The test system of test [4] is callus of Corylus avellana. Kind of test: regeneration of callus (formation of young plants), Corylus avellana. Conditions: about three months from culturing.

Turning to `O=C(O)COc1ccc(Cl)cc1Cl` [2,4-D, 2,4-dichlorophenoxyacetic acid], in test [1] (hormone 0.5 mg/l), the “CALLUS INDUCTION 30 days Leaves (%)” value is given as 10.9%, the “CALLUS INDUCTION 60 days Leaves (%)” value worked out at 63.8%, the “CALLUS INDUCTION 30 days Seeds (%)” value was 17.4% and the “CALLUS INDUCTION 60 days Seeds (%)” value is 43.7%. In test [1] (hormone 0.5 mg/l), the “CALLUS INDUCTION 30 days Stems (%)” value stood at 46.8% and the “CALLUS INDUCTION 60 days Stems (%)” value is 65.8%. Besides, in test [1] (hormone 1 mg/l), the “CALLUS INDUCTION 30 days Leaves (%)” value was 25.3%, the “CALLUS INDUCTION 60 days Leaves (%)” value was found to be 56.3%, the “CALLUS INDUCTION 30 days Seeds (%)” value is on record as 26.5% and the “CALLUS INDUCTION 60 days Seeds (%)” value is reported as 37.7%. Besides, in test [1] (hormone 1 mg/l), the “CALLUS INDUCTION 30 days Stems (%)” value is reported as 67.0% and the “CALLUS INDUCTION 60 days Stems (%)” value stood at 76.3%. For the same molecule, the “FORMATION OF YOUNG PLANTS (%) T. baccata” value in test [2] (hormone 0.5 mg/l) was determined as 0%. The “FORMATION OF YOUNG PLANTS (%) T. baccata” value in test [2] (hormone 1 mg/l) is listed as 0%. Also, in test [3] (hormone 0.5 mg/l), the “CALLUS INDUCTION 15 days Leaves (%)” value was 40.8%, the “CALLUS INDUCTION 30 days Leaves (%)” value came to 41.86%, the “CALLUS INDUCTION 15 days Seeds (%)” value came out at 27.7% and the “CALLUS INDUCTION 30 days Seeds (%)” value turned out to be 61.6%. In addition, in test [3] (hormone 0.5 mg/l), the “CALLUS INDUCTION 15 days Stems (%)” value is on record as 30.5% and the “CALLUS INDUCTION 30 days Stems (%)” value worked out at 75.0%. Besides, in test [3] (hormone 1 mg/l), the “CALLUS INDUCTION 15 days Leaves (%)” value worked out at 35.3%, the “CALLUS INDUCTION 30 days Leaves (%)” value is 35.5%, the “CALLUS INDUCTION 15 days Seeds (%)” value amounted to 28.3% and the “CALLUS INDUCTION 30 days Seeds (%)” value is recorded as 56.2%. In addition, in test [3] (hormone 1 mg/l), the “CALLUS INDUCTION 15 days Stems (%)” value is given as 25.0% and the “CALLUS INDUCTION 30 days Stems (%)” value came to 68.5%. In addition, the “FORMATION OF YOUNG PLANTS (%) C. avellana” value in test [4] (hormone 0.5 mg/l) turned out to be 15.8%. Also, in test [4] (hormone 1 mg/l), the “FORMATION OF YOUNG PLANTS (%) C. avellana” value was found to be 15.5%.
In the case of `c1ccc(CNc2ncnc3nc[nH]c23)cc1` [BA, benzyladenine], in test [1] (hormone 0.5 mg/l), the “CALLUS INDUCTION 30 days Leaves (%)” value worked out at 2.0%, the “CALLUS INDUCTION 60 days Leaves (%)” value is 4.5%, the “CALLUS INDUCTION 30 days Seeds (%)” value came to 6.2% and the “CALLUS INDUCTION 60 days Seeds (%)” value is on record as 32.7%. In addition, in test [1] (hormone 0.5 mg/l), the “CALLUS INDUCTION 30 days Stems (%)” value worked out at 2.0% and the “CALLUS INDUCTION 60 days Stems (%)” value turned out to be 9.0%. In test [1] (hormone 1 mg/l), the “CALLUS INDUCTION 30 days Leaves (%)” value is 2.0%, the “CALLUS INDUCTION 60 days Leaves (%)” value turned out to be 3.0%, the “CALLUS INDUCTION 30 days Seeds (%)” value is recorded as 0% and the “CALLUS INDUCTION 60 days Seeds (%)” value came to 0%. Also, in test [1] (hormone 1 mg/l), the “CALLUS INDUCTION 30 days Stems (%)” value came to 2.5% and the “CALLUS INDUCTION 60 days Stems (%)” value was 2.8%. Moreover, the “activity in callus induction of taxus cultures” value in test [1] (taxus cultures, exception stated for callus from seed at 60 days) is given as “not to be very active”. For the same molecule, the “FORMATION OF YOUNG PLANTS (%) T. baccata” value in test [2] (hormone 0.5 mg/l) is 0%. Further, the “FORMATION OF YOUNG PLANTS (%) T. baccata” value in test [2] (hormone 1 mg/l) was 0%. In test [3] (hormone 0.5 mg/l), the “CALLUS INDUCTION 15 days Leaves (%)” value is 1.7%, the “CALLUS INDUCTION 30 days Leaves (%)” value came to 4.6%, the “CALLUS INDUCTION 15 days Seeds (%)” value came out at 5.1% and the “CALLUS INDUCTION 30 days Seeds (%)” value worked out at 10.3%. In test [3] (hormone 0.5 mg/l), the “CALLUS INDUCTION 15 days Stems (%)” value is recorded as 0% and the “CALLUS INDUCTION 30 days Stems (%)” value worked out at 0%. In test [3] (hormone 1 mg/l), the “CALLUS INDUCTION 15 days Leaves (%)” value was determined as 0%, the “CALLUS INDUCTION 30 days Leaves (%)” value amounted to 4.6%, the “CALLUS INDUCTION 15 days Seeds (%)” value was found to be 4.0% and the “CALLUS INDUCTION 30 days Seeds (%)” value is 13.8%. In test [3] (hormone 1 mg/l), the “CALLUS INDUCTION 15 days Stems (%)” value turned out to be 2.5% and the “CALLUS INDUCTION 30 days Stems (%)” value is 15.0%. In addition, the “suitability for inducing callus from hazel” value in test [3] (used alone at a concentration of 0.5 and 1 mg/l) is recorded as “least suitable for inducing callus from hazel”. Besides, the “FORMATION OF YOUNG PLANTS (%) C. avellana” value in test [4] (hormone 0.5 mg/l) is listed as 13.3%. In addition, the “FORMATION OF YOUNG PLANTS (%) C. avellana” value in test [4] (hormone 1 mg/l) amounted to 8.7%.
For the molecule `O=C(O)Cc1cccc2ccccc12` [NAA, naphthaleneacetic acid], in test [1] (hormone 2 mg/l), the “CALLUS INDUCTION 30 days Leaves (%)” value was found to be 23.8%, the “CALLUS INDUCTION 60 days Leaves (%)” value is on record as 33.0%, the “CALLUS INDUCTION 30 days Seeds (%)” value was found to be 28.0% and the “CALLUS INDUCTION 60 days Seeds (%)” value was 52.0%. Also, in test [1] (hormone 2 mg/l), the “CALLUS INDUCTION 30 days Stems (%)” value was 55.0% and the “CALLUS INDUCTION 60 days Stems (%)” value worked out at 56.3%. In addition, the “FORMATION OF YOUNG PLANTS (%) T. baccata” value in test [2] (hormone 2 mg/l) is given as 1%. For the same molecule, in test [3] (hormone 2 mg/l), the “CALLUS INDUCTION 15 days Leaves (%)” value was found to be 8.3%, the “CALLUS INDUCTION 30 days Leaves (%)” value is 22.1%, the “CALLUS INDUCTION 15 days Seeds (%)” value was determined as 4.4% and the “CALLUS INDUCTION 30 days Seeds (%)” value was found to be 41.3%. In test [3] (hormone 2 mg/l), the “CALLUS INDUCTION 15 days Stems (%)” value is on record as 8.3% and the “CALLUS INDUCTION 30 days Stems (%)” value worked out at 5.4%. The “FORMATION OF YOUNG PLANTS (%) C. avellana” value in test [4] (hormone 2 mg/l) stood at 14.4%.
